In patent US20110152087A1, “Herbicidal compositions comprising flufenacet” (Bayer CropScience AG, priority 2009, published 2011):

Assays:
Format in all cases: in vivo
[1] = system: TRZAS=Triticum aestivum, summer wheat=crop plant; experiment: Greenhouse trial, selective post-emergence action on crop plants (test method 2)
Method: (§1) In the standard design of the test, seeds of various broad-leaved weed and weed grass biotypes (origins) were sown in a 8-13 cm diameter pot filled with natural soil of a standard field soil (loamy silt; non-sterile) and covered with a covering soil layer of about 1 cm. The pots were then cultivated in a greenhouse (12-16 h of light, temperature day 20-22° C., night 15-18° C.) until the time of application. The pots were treated on a laboratory track sprayer with spray liquors comprising the compositions according to the invention, mixtures of the prior art or components used individually. Application of the active compounds or active compound combinations formulated as WG, WP, EC or otherwise was carried out at the appropriate growth stages of the plants. The application rate for the spray application was 100-600 l of water/ha. After the treatment, the plants were returned to the greenhouses.
(§2) About 3 weeks after the application, the soil action or/and foliar action was assessed visually according to a scale of 0-100% in comparison to an untreated comparative group: 0%=no noticeable effect compared to the untreated comparative group; 100%=full effect compared to the untreated comparative group.
(§3) (notes: the term “seeds” also includes vegetative propagation forms such as, for example, rhizome pieces; abbreviations used: h light=hours of illumination, g of AS/ha=gram of active substance per hectare, l/ha=liter per hectare, S=sensitive, R=resistant) • 1. Post-emergence action against weeds: seeds of various broad-leaved weed and weed grass biotypes (origins) were sown in a 8-13 cm diameter pot filled with natural soil of a standard field soil (loamy silt; non-sterile) and covered with a covering soil layer of about 1 cm. The pots were then cultivated in a greenhouse (12-16 h of light, temperature day 20-22° C., night 15-18° C.) until the time of application. The pots were treated at various BBCH stages between 11-25 of the seeds/plants, i.e. generally between two to three weeks after the start of the cultivation, on a laboratory track sprayer with spray liquors comprising the compositions according to the invention, mixtures or components used individually, as WG, WP, EC or other formulations. The application rate for the spray application was 100-600 l of water/ha. After the treatment, the plants were returned to the greenhouses and, when required, treated with fertilizer and watered. • 2. Selective post-emergence action: seeds of various crop species (origins) were sown in a 8-13 cm diameter pot filled with natural soil of a standard field soil (loamy silt; non-sterile) and covered with a covering soil layer of about 1 cm. The pots were then cultivated in a greenhouse (12-16 h of light, temperature day 20-22° C., night 15-18° C.) until the time of application. The pots were treated at various BBCH stages between 11-32 of the seeds/plants, i.e. generally between two to four weeks after the start of the cultivation, on a laboratory track sprayer with spray liquors comprising the compositions according to the invention, mixtures or components used individually, as WG, WP, EC or other formulations. The application rate for the spray application was 100-600 l of water/ha. After the treatment, the plants were returned to the greenhouses and, when required, treated with fertilizer and watered. The pots were cultivated in a greenhouse (12-16 h light, temperature day 20-22° C., night 15-18° C.).
(§4) E=(A+B+C)−(A×B+A×C+B×C)/100+(A×B×C)/10 000 • in which: • A, B, C=each the activity of the components A or B or C in percent at a dosage of a or b gram of AS/ha; • E^C=expected value according to Colby in % at a dosage of a+b gram of AS/ha. • Δ=difference (%) of measured value−%-to expected value−%-(measured value minus expected value) • Δ^D=difference (%) of the measured value of an observation A−%-to the measured value of an observation B−%. […]

[2] = system: TRZAW=Triticum aestivum, winter wheat=crop plant; experiment: as above
Method: as §1, §2, §3, §4

[3] = system: STEME=Stellaria media=weed; experiment: Greenhouse trial, post-emergence action against weeds (test method 1); details: PO application, about 3 weeks after application; g of AS/ha: flufenacet 120, diclofop 378, diflufenican 120, mixture 120+378+120
Method: as §1, §2, §3, §4

[4] = system: ALOMY=Alopecurus myosuroides=weed; experiment: as above; details: PO application, about 3 weeks after application; g of AS/ha: flufenacet 120, diclofop 378, diflufenican 120, mixture 120+378+120
Method: as §1, §2, §3, §4

[5] = system: APESV=Apera Spica-venti=weed; experiment: as above; details: PO application, about 3 weeks after application; g of AS/ha: flufenacet 120, diclofop 378, diflufenican 120, mixture 120+378+120
Method: as §1, §2, §3, §4

[6] = PO application, about 3 weeks after application, g of AS/ha: flufenacet 120, diclofop 378, diflufenican 120, mixture 120+378+120

Structure (SMILES) | action on crop plant TRZAS, visual assessment on scale 0-100% versus untreated [1, 6] [%] | action on crop plant TRZAW, visual assessment on scale 0-100% versus untreated [2, 6] [%] | activity STEME, visual assessment on scale 0-100% versus untreated [3] [%] | activity ALOMY, visual assessment on scale 0-100% versus untreated [4] [%] | activity APESV, visual assessment on scale 0-100% versus untreated [5] [%] | action on crop plant TRZAS, visual assessment on scale 0-100% versus untreated ([1]; in vivo, po) [%] | action on crop plant TRZAW, visual assessment on scale 0-100% versus untreated ([2]; in vivo, po) [%]
CC(Oc1ccc(Oc2ccc(Cl)cc2Cl)cc1)C(=O)O (racemic) [(B) diclofop, (±)-2-[4-(2,4-dichlorophenoxy)phenoxy]propanoic acid] | 10 | 20 | 0 | 15 | 0 | – | –
CC(C)N(C(=O)COc1nnc(C(F)(F)F)s1)c1ccc(F)cc1 [(A) flufenacet, N-(4-fluorophenyl)-N-(1-methylethyl)-2-[[5-(trifluoromethyl)-1,3,4-thiadiazol-2-yl]oxy]acetamide] | – | – | 30 | 65 | 60 | 40 | 50
O=C(Nc1ccc(F)cc1F)c1cccnc1Oc1cccc(C(F)(F)F)c1 [(C) diflufenican, N-(2,4-difluorophenyl)-2-[3-(trifluoromethyl)phenoxy]-3-pyridinecarboxamide] | 5 | 5 | 30 | 10 | 5 | – | –
